Reference: DBAASP
Values after ≈ are worked out from the molar mass of the structure shown.

Columns and labels:
Test in all cases: ≥ marks a high value that may be exact or a test limit, other limits are often not marked, values filed in µg/mL are converted to µM
[1] = test system: Neisseria gonorrhoeae F62
[2] = test system: Neisseria gonorrhoeae FA19
[3] = test system: Xanthomonas arboricola pv. pruni CFBP 5563
[4] = test system: Xanthomonas fragariae Xf349-9A
[5] = test system: Pseudomonas syringae pv. actinidiae Psa3700.1.1
[6] = test system: Xanthomonas campestris pv. Vesicatoria 2133-2
[7] = test system: Pseudomonas syringae pv. syringae EPS 94
[8] = test system: Erwinia amylovora PMV 6076
[9] = test system: Candida parapsilosis ATCC 22019
[10] = test system: Malassezia furfur KCTC 7744
[11] = test system: Trichosporon beigelii KCTC 7707
[12] = test system: Candida albicans ATCC 90028
[13] = test system: Saccharomyces cerevisiae ATCC 44774
[14] = test system: Cryptococcus neoformans ATCC 34881
[15] = test system: Candida albicans ATCC 10231
[16] = test system: Salmonella typhimurium KCTC 2370
[17] = test system: Micrococcus luteus ATCC 10240
[18] = test system: Escherichia coli ATCC 27325
[19] = test system: Enterococcus faecalis ATCC 29212
[20] = test system: Pseudomonas aeruginosa ATCC 27853
[21] = test system: Bacillus subtilis KCTC 3038
[22] = test system: Staphylococcus aureus ATCC 15752
[23] = test system: Pseudomonas aeruginosa 1133
[24] = test system: Pseudomonas aeruginosa 1109
[25] = test system: Acinetobacter baumannii ATCC BAA-1605
[26] = test system: Pseudomonas aeruginosa ATCC 25619
[27] = test system: Staphylococcus epidermidis NRS 101
[28] = test system: Staphylococcus aureus ATCC 43300
[29] = test system: Pseudomonas aeruginosa ATCC BAA-1744
[30] = test system: Staphylococcus aureus RN4220
[31] = test system: Pseudomonas aeruginosa ATCC 35032
[32] = test system: Acinetobacter baumannii NR-17777
[33] = test system: Acinetobacter baumannii ATCC 19606
[34] = test system: Staphylococcus aureus NRS 1
[35] = test system: Pseudomonas aeruginosa ATCC 9027
[36] = test system: Staphylococcus aureus NRS 72
[37] = test system: Staphylococcus aureus ATCC 6538
[38] = test system: Staphylococcus aureus USA 100
[39] = test system: Staphylococcus aureus VRSA2
[40] = test system: Staphylococcus aureus NRS 19
[41] = test system: Staphylococcus aureus USA 300
[42] = test system: Pseudomonas aeruginosa 1017
[43] = test system: Acinetobacter baumannii ATCC BAA-747
[44] = test system: Staphylococcus aureus NRS 77
[45] = test system: Staphylococcus aureus ATCC BAA-44
[46] = test system: Acinetobacter baumannii NR-9667
[47] = test system: Pseudomonas aeruginosa ATCC 15442
[48] = test system: Pseudomonas aeruginosa ATCC 9721
[49] = test system: Acinetobacter baumannii NR-17784
[50] = test system: Pseudomonas aeruginosa ATCC 10145
[51] = test system: Staphylococcus aureus USA 200
[52] = test system: Staphylococcus aureus VRSA1

CC(C)[C@H](NC(=O)[C@@H]1CSSC[C@H](N)C(=O)N[C@@H](Cc2ccc(O)cc2)C(=O)N[C@H]2CSSC[C@H](NC(=O)[C@H](Cc3ccccc3)NC(=O)[C@H](CCCNC(=N)N)NC(=O)[C@H](CCCNC(=N)N)NC(=O)[C@H](CCCNC(=N)N)NC2=O)C(=O)N[C@@H](C(C)C)C(=O)N1)C(=O)NCC(=O)N[C@@H](CCCNC(=N)N)C(N)=O [CYCRRRFCVCVGR]
MIC [1]: 2.7 µM (≈ 4.36 µg/mL) | MIC [2]: 6.56 µM (≈ 10.6 µg/mL)

CC[C@H](C)[C@H](NC(=O)[C@H](CCC(=O)O)NC(=O)[C@H](CC(N)=O)NC(=O)[C@H](CC(C)C)NC(=O)[C@H](C)NC(=O)[C@H](CCCCN)NC(=O)[C@@H](N)CCC(N)=O)C(=O)N[C@@H](CC(N)=O)C(=O)N[C@@H](CCC(N)=O)C(=O)N[C@@H](Cc1ccccc1)C(N)=O [QKALNEINQF]
MIC [3]: ≥ 50 µM | MIC [4]: ≥ 50 µM | MIC [5]: ≥ 50 µM | MIC [6]: ≥ 50 µM | MIC [7]: ≥ 50 µM | MIC [8]: ≥ 50 µM

CC[C@H](C)[C@H](NC(=O)[C@H](C)NC(=O)[C@H](CCCCN)NC(=O)[C@H](CCCN=C(N)N)NC(=O)[C@H](CS)NC(=O)[C@H](CCCN=C(N)N)NC(=O)[C@H](CCCCN)NC(=O)[C@@H](NC(=O)[C@H](CC(N)=O)NC(=O)[C@H](CCCN=C(N)N)NC(=O)[C@H](CCC(=O)O)NC(=O)[C@H](CS)NC(=O)[C@H](CO)NC(=O)[C@@H](NC(=O)[C@H](CCCCN)NC(=O)[C@H](Cc1cnc[nH]1)NC(=O)[C@H](CC(N)=O)NC(=O)CNC(=O)[C@H](CC(C)C)NC(=O)[C@H](CCCCN)NC(=O)[C@H](CCCCN)NC(=O)[C@H](CCSC)NC(=O)[C@@H](N)CCCN=C(N)N)C(C)C)[C@@H](C)O)C(=O)O [RMKKLGNHKVSCERNTKRCRKAI]
MIC [9]: 10 µM (≈ 27.6 µg/mL) | MIC [10]: 14.1 µM (≈ 39 µg/mL) | MIC [11]: 20 µM (≈ 55.1 µg/mL) | MIC [12]: 10 µM (≈ 27.6 µg/mL)

CC(C)[C@H](NC(=O)CNC(=O)[C@H](CCC(N)=O)NC(=O)[C@@H](NC(=O)[C@@H](NC(=O)[C@@H]1CCCN1C(=O)[C@H](CCCN=C(N)N)NC(=O)[C@@H](NC(=O)[C@@H](NC(=O)[C@@H](N)CCCN=C(N)N)C(C)C)C(C)C)C(C)C)C(C)C)C(=O)N[C@@H](CCCCN)C(=O)N[C@@H](CCC(=O)O)C(=O)N[C@@H](CCCCN)C(=O)N[C@H](C(=O)N[C@@H](CCCN=C(N)N)C(=O)O)C(C)C [RVVRPVVQGVKEKVR]
MIC [13]: ≥ 36.6 µM | MIC [14]: ≥ 36.6 µM | MIC [15]: > 36.6 µM | MIC [16]: ≥ 36.6 µM | MIC [17]: ≥ 36.6 µM | MIC [18]: ≥ 36.6 µM | MIC [19]: > 36.6 µM | MIC [20]: > 36.6 µM | MIC [21]: ≥ 36.6 µM | MIC [22]: ≥ 36.6 µM

CC[C@H](C)[C@H](NC(=O)[C@H](CCCN=C(N)N)NC(=O)[C@H](CCCN=C(N)N)NC(=O)[C@H](CC(C)C)NC(=O)[C@@H](N)Cc1c[nH]c2ccccc12)C(=O)N[C@@H](CCCCN)C(=O)N[C@@H](C)C(=O)N[C@@H](Cc1c[nH]c2ccccc12)C(=O)N[C@@H](CC(C)C)C(=O)N[C@@H](CCCN=C(N)N)C(=O)N[C@@H](CCCN=C(N)N)C(=O)O [WLRRIKAWLRR]
MIC [23]: ≥ 64 µM | MIC [24]: ≥ 128 µM | MIC [25]: ≥ 32 µM | MIC [26]: ≥ 64 µM | MIC [27]: 8 µM (≈ 12.4 µg/mL) | MIC [28]: 16 µM (≈ 24.9 µg/mL) | MIC [29]: ≥ 128 µM | MIC [30]: 8 µM (≈ 12.4 µg/mL) | MIC [31]: ≥ 64 µM | MIC [32]: 16 µM (≈ 24.9 µg/mL) | MIC [33]: 16 µM (≈ 24.9 µg/mL) | MIC [34]: 16 µM (≈ 24.9 µg/mL) | MIC [35]: 64 µM (≈ 99.5 µg/mL) | MIC [36]: ≥ 32 µM | MIC [37]: 16 µM (≈ 24.9 µg/mL) | MIC [38]: 16 µM (≈ 24.9 µg/mL) | MIC [39]: 16 µM (≈ 24.9 µg/mL) | MIC [40]: 8 µM (≈ 12.4 µg/mL) | MIC [41]: 16 µM (≈ 24.9 µg/mL) | MIC [42]: ≥ 128 µM | MIC [43]: ≥ 64 µM | MIC [44]: 16 µM (≈ 24.9 µg/mL) | MIC [45]: 16 µM (≈ 24.9 µg/mL) | MIC [46]: ≥ 32 µM | MIC [47]: ≥ 128 µM | MIC [48]: ≥ 64 µM | MIC [49]: ≥ 64 µM | MIC [20]: 64 µM (≈ 99.5 µg/mL) | MIC [50]: ≥ 128 µM | MIC [51]: 8 µM (≈ 12.4 µg/mL) | MIC [52]: ≥ 32 µM
